Target: Biliverdin reductase A (Homo sapiens) (UniProt P53004)
Assay: ligand binding to human biliverdin reductase A – biophysical, DSF, SYPRO orange, recombinant protein (AID 516)
Settings: recombinant BLVRA, DSF thermal shift, at 10 µM, buffer 10 mM HEPES, pH 7.5, NaCl 150 mM, stronger effect = higher value

Sequence of Biliverdin reductase A (Homo sapiens) (P53004 whole entry, looked up): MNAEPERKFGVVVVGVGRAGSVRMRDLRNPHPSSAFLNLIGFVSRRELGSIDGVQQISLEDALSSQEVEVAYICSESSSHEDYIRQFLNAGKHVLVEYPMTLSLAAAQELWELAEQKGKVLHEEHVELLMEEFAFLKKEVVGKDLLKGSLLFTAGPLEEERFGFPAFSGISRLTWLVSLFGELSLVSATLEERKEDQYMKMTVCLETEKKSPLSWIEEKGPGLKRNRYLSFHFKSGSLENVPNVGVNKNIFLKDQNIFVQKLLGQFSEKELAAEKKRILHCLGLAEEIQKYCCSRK

Tm shift: 3.8 Celsius
Compound: C=CC1=C(C)/C(=C/c2[nH]c(Cc3[nH]c(/C=C4\NC(=O)C(C)=C4C=C)c(C)c3CCC(=O)O)c(CCC(=O)O)c2C)NC1=O

Reference: PubChem BioAssay AID516
